Reference: patent US11254654B2, “Heterochromatin gene repression inhibitors” (The University of North Carolina at Chapel Hill, priority 2017, dated 2022)
Structures can show the parent of a compound that is named as a salt.

System: H3K9me2/3
Test: Global H3K9me2/3 western blot of acid extracted histones
Type: cell-based, mouse
Settings: 10 μM compound, 48 hours
Description: CiA:Oct4 N118/N163 cells were grown to confluency as described above in standard gelatin coated 6 well tissue culture plates. Media was aspirated and the cells were washed with 2 mL of PBS. The PBS was removed and the cells were trypsinized with 0.25% trypsin-EDTA until a single cell suspension was generated. Cells were transferred to a conical tube and pelleted at 300×g for 5 min. Supernatant was removed and the cells were washed with PBS and centrifuged at 300×g for 5 min. The PBS supernatant was removed. Nuclei were collected from the cells by resuspending the pellet in lysis buffer containing (50 mM HEPES pH 8.0, 140 mM NaCl, 1 mM EDTA, 10% glycerol, 0.5% NP40, 0.25% Triton X100). Cells were incubated in lysis buffer on ice for 10 min. Nuclei were pelleted at 1200×g for 5 min at 4° C. and the supernatant was removed. […]
SDS-PAGE sample gels were transferred to Millipore Immobilon-FL PVDF membranes either by semi-wet or wet transfer according to Bio-Rad procedure. […] Western blot membranes were imaged using the Licor Odyssey scanner and data analyzed using Image Studio v5.2 software.
HP1 gene repression and silencing is mediated by H3K9me3 deposition. […] Total extracted histone proteins were quantified by Bradford Coomassie and equal total protein was loaded per sample for gel electrophoresis and subsequent western blot analysis. […]

`COc1cc2nc(N3CCCC3)nc(N[C@H]3CCCNC3)c2cc1OC` [compound 1, (S)-6,7-Dimethoxy-N-(Piperidin-3-yl)-2-(Pyrrolidin-1-yl)Quinazolin-4-Amine Trifluoroacetic Acid Salt] was tested, and the “Global H3K9me2/3 levels normalized to histone H4” value was “roughly equivalent decreases in H3K9 methylation”.
